Reference: patent US9951128B2, “Caninized anti-NGF antibodies and methods thereof” (ZOETIS SERVICES LLC, priority 2012, dated 2018)

Experiment: Mean group body weight in the rat MIA study
Assay type: in vivo, Rat Ola Wistar
Conditions: morphine 10 mg/kg SC, mAbs 8 mg/kg SC
From the text: Mean group body weight for all groups (g).

Question: With CN1CC[C@]23c4c5ccc(O)c4O[C@H]2[C@@H](O)C=C[C@H]3[C@H]1C5 [Morphine] as the compound, how does the “Mean group body weight, Baseline” value read?
Answer: 178.5 g

Question: And the “Mean group body weight, Day 7” value?
Answer: 256.2 g

Question: And the “Mean group body weight, Day 14” value?
Answer: 285.1 g

Question: And the “Mean group body weight, Day 21” value?
Answer: 300.6 g

Question: What about the “Mean group body weight, Day 27” value of the same compound?
Answer: 316 g
